Data from USRE35321E, “Tetrazoleacetic acid derivatives having aldose reductase inhibitory activity” (Wakamoto Pharmaceutical Co., Ltd., priority 1990, dated 1996).
pIC50: −log10 of the molar value.

Key:
aldose reductase = target: T1, aldose reductase (Rattus norvegicus, UniProt P07943); test: Aldose reductase inhibitory effect (enzyme from crystalline lenses, DL-glyceraldehyde substrate); type: biochemical, rat (male SD); conditions: 10 mM DL-glyceraldehyde, pH 6.2, 30° C.
T1 construct: Then their crystalline lenses were immediately removed and stored at -80° C; The lenses were homogenized; from tissue; host or cells: crystalline lenses of six-week-old male SD rats
Description: Six-weeks-old male SD rates were anesthetized with ether and killed. Then their crystalline lenses were immediately removed and stored at -80° C. […] All operations were conducted at 4° C. and the enzyme solution was stored at -80° C.
More specifically, 0.1 ml of DL glyceraldehyde (final concentration: 10 mM) was added to 0.9 ml of 100 mM sodium potassium phosphate buffer (pH 6.2) which contained lithium sulfate (final concentration: 400 mM), reduced nicotinamide adenine dinucleotide phosphate (final concentration: 0.15 mM), the enzyme solution, and the compound to be evaluated (final concentration: 10^-6 M, 10^-7 M or […]), and then the reaction was conducted at 30° C. for 5 minutes. During the reaction, the change in the absorbance at 340 nm with time was monitored. The maximum reducing rate of the absorbance (U) during the reaction was determined. By subtracting, from this value, the maximum reducing rate (Uo) at 340 nm of the reaction solution before the addition of the substrate (DL-glyceraldehyde), the reaction rate (V=U-Uo) was calculated as a true reaction rate in the presence of the compound to be tested.
The same procedure was repeated except for the absence of the compound to be tested. A true reaction rate (Vo) in case the enzyme was not inhibited was calculated (Vo =U'-Uo '). The aldose reductase inhibitory activity of the test compounds was determined according to the following formula:
Rate of Inhibition (%)=(Vo -V)/Vo ×100

[1] = system: accumulation of sorbitol in sciatic nerve; test: Inhibiting the accumulation of sorbitol in sciatic nerve of streptozotocin diabetic rats; type: in vivo, Sprague-Dawley male rats; conditions: twice a day for 5 days
Description: Groups of 6 to 8-weeks-old Sprague-Dawley male rats (4 aminals per group) were fasted for 18 hours and streptozotocin was injected through the tail vein in a dose of 60 mg/kg to thus obtain diabetic rats. Immediately after the administration of the streptozotocin, each compound to be tested was orally administered to these rats in the form of a suspension at a dose of 10 mg/kg, 30 mg/kg and 50 mg/kg (each was suspended in a 0.5% sodium carboxymethyl cellulose solution) twice a day (9 o'clock in the morning and 5 o'clock in the afternoon) for 5 days. During the test, the rats took diet and drank water freely. 4 Hours after the final administration of the drug in the 5th day's morning (9 o'clock in the morning), the rats were sacrificed and then the sciatic nerve thereof was removed to determine the amount of sorbitol accumulated therein.
The results are expressed in the percentage obtained while the value obtained on the control to which any drug was not administered is defined to be 100.

Compound | pIC50 (aldose reductase) | Rate of Inhibition of Sorbitol Accumulation ([1]; 10 mg/kg oral) [%] | Rate of Inhibition of Sorbitol Accumulation ([1]; 30 mg/kg oral) [%]
O=C(O)Cn1nnnc1-c1ccoc1 [Example 2-7, [5-(3-furyl)tetrazol-1-yl] acetic acid] | 7.52 | 46 | 77
O=C(O)Cn1nnnc1-c1cccs1 [Example 2-1, [5-(2-thienyl)tetrazol-1-yl] acetic acid] | 7.80 | 68 | 89
